{"source": "paper PMC5095062", "about": "“The novel choline kinase inhibitor ICL-CCIC-0019 reprograms cellular metabolism and inhibits cancer cell growth” (Oncotarget, 2016)", "assay_in_all_cases": "Kinase selectivity screen", "format_in_all_cases": "biochemical", "key": {"CAMKKb": {"molecular_target": "CAMKKb (Homo sapiens, UniProt Q96RR4)"}, "CHK2": {"molecular_target": "CHK2 (Homo sapiens, UniProt O96017)", "conditions": "CHK2, 10 μM"}, "CK1γ2": {"molecular_target": "CK1γ2 (Homo sapiens, UniProt P78368)", "conditions": "CK1γ2, 10 μM"}, "CK1δ": {"molecular_target": "CK1δ (Homo sapiens, UniProt P48730)"}, "ERK1": {"molecular_target": "ERK1 (Homo sapiens, UniProt P27361)", "sequence (P27361 whole entry)": "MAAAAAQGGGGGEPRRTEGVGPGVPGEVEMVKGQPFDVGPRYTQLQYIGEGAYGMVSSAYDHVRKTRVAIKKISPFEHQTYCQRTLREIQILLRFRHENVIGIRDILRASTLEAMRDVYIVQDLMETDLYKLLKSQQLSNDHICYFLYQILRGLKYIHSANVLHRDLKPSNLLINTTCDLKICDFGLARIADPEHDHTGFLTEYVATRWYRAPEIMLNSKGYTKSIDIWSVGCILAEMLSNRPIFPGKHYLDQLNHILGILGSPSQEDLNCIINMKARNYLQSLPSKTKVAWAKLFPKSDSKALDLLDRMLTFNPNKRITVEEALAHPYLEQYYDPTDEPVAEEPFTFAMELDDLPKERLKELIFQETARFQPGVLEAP", "conditions": "ERK1, 10 μM", "method_in_brief": "(§1)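 ICL-CCIC-0019 was screened against a panel of 131 human kinases to assess kinase specificity. Activity was expressed as percent inhibition of each kinase.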"}, "HIPK1": {"molecular_target": "HIPK1 (Homo sapiens, UniProt Q86Z02)", "sequence (Q86Z02 whole entry)": "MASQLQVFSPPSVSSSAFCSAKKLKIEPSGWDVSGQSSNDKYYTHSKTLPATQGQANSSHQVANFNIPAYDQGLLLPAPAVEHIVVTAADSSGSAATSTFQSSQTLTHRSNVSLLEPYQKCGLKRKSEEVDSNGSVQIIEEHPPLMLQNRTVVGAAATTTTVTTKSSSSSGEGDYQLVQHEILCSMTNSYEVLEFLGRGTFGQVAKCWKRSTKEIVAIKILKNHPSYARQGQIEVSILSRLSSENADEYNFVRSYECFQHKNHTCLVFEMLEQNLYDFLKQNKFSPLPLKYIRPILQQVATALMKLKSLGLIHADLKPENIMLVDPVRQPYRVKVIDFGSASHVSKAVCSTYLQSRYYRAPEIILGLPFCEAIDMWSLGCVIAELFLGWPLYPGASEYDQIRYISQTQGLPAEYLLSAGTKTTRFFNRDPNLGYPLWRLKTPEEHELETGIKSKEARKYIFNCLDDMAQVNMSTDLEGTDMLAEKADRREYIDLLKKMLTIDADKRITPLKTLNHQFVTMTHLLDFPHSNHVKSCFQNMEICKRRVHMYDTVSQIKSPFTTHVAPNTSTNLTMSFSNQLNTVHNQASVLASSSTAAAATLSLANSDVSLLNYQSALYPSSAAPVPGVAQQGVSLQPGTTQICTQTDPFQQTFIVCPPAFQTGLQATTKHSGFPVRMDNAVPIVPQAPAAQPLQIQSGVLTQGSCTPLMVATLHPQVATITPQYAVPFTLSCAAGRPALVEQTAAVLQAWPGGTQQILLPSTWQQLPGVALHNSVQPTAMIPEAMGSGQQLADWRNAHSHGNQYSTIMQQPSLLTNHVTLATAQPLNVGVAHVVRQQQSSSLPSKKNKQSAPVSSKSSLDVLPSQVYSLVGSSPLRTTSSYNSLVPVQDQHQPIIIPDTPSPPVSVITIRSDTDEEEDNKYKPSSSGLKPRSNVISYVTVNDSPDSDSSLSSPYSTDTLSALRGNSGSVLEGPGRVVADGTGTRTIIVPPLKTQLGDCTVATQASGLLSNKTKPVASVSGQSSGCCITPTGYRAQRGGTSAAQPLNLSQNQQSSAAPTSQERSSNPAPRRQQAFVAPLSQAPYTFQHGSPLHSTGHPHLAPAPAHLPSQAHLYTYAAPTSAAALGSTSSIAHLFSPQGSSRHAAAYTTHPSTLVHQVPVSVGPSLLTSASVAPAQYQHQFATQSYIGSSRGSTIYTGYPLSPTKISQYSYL", "conditions": "HIPK1, 10 μM", "method_in_brief": "as §1"}, "IKKb": {"molecular_target": "IKKb (Homo sapiens, UniProt O14920)", "method_in_brief": "as §1"}, "IRAK4": {"molecular_target": "IRAK4 (Homo sapiens, UniProt Q9NWZ3)", "conditions": "IRAK4, 10 μM"}, "IRR": {"molecular_target": "IRR (Homo sapiens, UniProt P14616)"}, "MKK1": {"molecular_target": "MKK1 (Homo sapiens, UniProt Q02750)", "conditions": "MKK1, 10 μM"}, "MNK2": {"molecular_target": "MNK2 (Homo sapiens, UniProt Q9HBH9)", "conditions": "MNK2, 10 μM"}, "MPSK1": {"molecular_target": "MPSK1 (Homo sapiens, UniProt O75716)", "sequence (O75716 whole entry)": "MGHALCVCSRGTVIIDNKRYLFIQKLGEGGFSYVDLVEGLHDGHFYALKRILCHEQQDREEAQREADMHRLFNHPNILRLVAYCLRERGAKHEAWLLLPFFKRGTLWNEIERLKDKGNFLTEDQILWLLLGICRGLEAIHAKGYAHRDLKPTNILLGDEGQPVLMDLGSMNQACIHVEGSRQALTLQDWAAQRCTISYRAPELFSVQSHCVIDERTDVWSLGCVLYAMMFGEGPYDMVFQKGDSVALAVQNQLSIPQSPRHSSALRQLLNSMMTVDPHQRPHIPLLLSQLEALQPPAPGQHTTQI", "conditions": "MPSK1, 10 μM", "method_in_brief": "as §1"}, "MSK1": {"molecular_target": "MSK1 (Homo sapiens, UniProt O75582)", "conditions": "MSK1, 10 μM", "method_in_brief": "as §1"}, "MST2": {"molecular_target": "MST2 (Homo sapiens, UniProt Q13188)", "conditions": "MST2, 10 μM", "method_in_brief": "as §1"}, "PAK5": {"molecular_target": "PAK5 (Homo sapiens, UniProt Q9P286)", "conditions": "PAK5, 10 μM", "method_in_brief": "as §1"}, "PAK6": {"molecular_target": "PAK6 (Homo sapiens, UniProt Q9NQU5)", "conditions": "PAK6, 10 μM", "method_in_brief": "as §1"}, "PDK1": {"molecular_target": "PDK1 (Homo sapiens, UniProt O15530)", "sequence (O15530 whole entry)": "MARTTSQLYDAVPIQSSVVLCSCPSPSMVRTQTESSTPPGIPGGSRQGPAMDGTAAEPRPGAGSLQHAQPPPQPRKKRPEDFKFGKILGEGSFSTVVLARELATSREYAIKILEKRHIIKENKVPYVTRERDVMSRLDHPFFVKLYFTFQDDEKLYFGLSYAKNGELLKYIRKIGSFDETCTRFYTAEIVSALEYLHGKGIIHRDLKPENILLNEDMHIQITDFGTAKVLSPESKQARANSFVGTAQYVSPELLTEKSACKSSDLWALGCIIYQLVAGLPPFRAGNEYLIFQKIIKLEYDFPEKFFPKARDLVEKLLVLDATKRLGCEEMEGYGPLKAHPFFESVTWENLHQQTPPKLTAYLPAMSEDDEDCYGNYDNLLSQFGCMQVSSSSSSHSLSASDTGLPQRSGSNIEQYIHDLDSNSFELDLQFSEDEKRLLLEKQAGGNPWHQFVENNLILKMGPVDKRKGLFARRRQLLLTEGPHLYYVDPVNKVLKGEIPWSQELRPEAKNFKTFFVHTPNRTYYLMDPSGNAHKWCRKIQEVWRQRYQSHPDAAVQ", "conditions": "PDK1, 10 μM", "method_in_brief": "as §1"}, "PHK": {"molecular_target": "PHK (Homo sapiens, UniProt Q16816)", "method_in_brief": "as §1"}, "PIM1": {"molecular_target": "PIM1 (Homo sapiens, UniProt P11309)", "sequence (P11309 whole entry)": "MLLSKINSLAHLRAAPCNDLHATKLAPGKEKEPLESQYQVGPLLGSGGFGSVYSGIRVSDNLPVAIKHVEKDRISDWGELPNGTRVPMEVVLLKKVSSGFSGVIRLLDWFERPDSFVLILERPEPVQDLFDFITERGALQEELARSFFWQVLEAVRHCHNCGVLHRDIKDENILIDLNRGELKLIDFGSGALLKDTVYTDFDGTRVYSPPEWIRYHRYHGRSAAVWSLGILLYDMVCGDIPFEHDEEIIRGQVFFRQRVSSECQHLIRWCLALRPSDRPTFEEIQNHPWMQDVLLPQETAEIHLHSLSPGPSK", "conditions": "PIM1, 10 μM", "method_in_brief": "as §1"}, "PKA": {"molecular_target": "PKA (Homo sapiens, UniProt P17612)", "method_in_brief": "as §1"}, "PKBa": {"molecular_target": "PKBa (Homo sapiens, UniProt P31749)", "method_in_brief": "as §1"}, "PKCa": {"molecular_target": "PKCa (Homo sapiens, UniProt P17252)", "method_in_brief": "as §1"}, "PKD1": {"molecular_target": "PKD1 (Homo sapiens, UniProt Q15139)", "conditions": "PKD1, 10 μM", "method_in_brief": "as §1"}, "PRAK": {"molecular_target": "PRAK (Homo sapiens, UniProt Q8IW41)", "method_in_brief": "as §1"}, "S6K1": {"molecular_target": "S6K1 (Homo sapiens, UniProt P23443)", "sequence (P23443 whole entry)": "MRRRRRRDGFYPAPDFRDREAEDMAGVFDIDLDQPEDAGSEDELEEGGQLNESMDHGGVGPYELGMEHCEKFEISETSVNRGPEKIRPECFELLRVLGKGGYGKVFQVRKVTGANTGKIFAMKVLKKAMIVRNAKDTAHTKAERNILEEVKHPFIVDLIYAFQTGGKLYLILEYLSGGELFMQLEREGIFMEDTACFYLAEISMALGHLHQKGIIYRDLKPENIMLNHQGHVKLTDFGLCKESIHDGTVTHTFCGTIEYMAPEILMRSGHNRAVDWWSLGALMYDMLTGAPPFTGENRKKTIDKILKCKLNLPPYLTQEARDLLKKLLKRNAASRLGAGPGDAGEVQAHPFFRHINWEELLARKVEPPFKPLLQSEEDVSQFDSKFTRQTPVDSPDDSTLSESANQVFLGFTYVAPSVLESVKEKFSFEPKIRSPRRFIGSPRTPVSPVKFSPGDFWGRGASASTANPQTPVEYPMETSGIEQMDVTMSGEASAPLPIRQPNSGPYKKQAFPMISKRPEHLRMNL", "conditions": "S6K1, 10 μM", "method_in_brief": "as §1"}, "SGK1": {"molecular_target": "SGK1 (Homo sapiens, UniProt O00141)", "conditions": "SGK1, 10 μM", "method_in_brief": "as §1"}, "SIK3": {"molecular_target": "SIK3 (Homo sapiens, UniProt Q9Y2K2)", "sequence (Q9Y2K2 whole entry)": "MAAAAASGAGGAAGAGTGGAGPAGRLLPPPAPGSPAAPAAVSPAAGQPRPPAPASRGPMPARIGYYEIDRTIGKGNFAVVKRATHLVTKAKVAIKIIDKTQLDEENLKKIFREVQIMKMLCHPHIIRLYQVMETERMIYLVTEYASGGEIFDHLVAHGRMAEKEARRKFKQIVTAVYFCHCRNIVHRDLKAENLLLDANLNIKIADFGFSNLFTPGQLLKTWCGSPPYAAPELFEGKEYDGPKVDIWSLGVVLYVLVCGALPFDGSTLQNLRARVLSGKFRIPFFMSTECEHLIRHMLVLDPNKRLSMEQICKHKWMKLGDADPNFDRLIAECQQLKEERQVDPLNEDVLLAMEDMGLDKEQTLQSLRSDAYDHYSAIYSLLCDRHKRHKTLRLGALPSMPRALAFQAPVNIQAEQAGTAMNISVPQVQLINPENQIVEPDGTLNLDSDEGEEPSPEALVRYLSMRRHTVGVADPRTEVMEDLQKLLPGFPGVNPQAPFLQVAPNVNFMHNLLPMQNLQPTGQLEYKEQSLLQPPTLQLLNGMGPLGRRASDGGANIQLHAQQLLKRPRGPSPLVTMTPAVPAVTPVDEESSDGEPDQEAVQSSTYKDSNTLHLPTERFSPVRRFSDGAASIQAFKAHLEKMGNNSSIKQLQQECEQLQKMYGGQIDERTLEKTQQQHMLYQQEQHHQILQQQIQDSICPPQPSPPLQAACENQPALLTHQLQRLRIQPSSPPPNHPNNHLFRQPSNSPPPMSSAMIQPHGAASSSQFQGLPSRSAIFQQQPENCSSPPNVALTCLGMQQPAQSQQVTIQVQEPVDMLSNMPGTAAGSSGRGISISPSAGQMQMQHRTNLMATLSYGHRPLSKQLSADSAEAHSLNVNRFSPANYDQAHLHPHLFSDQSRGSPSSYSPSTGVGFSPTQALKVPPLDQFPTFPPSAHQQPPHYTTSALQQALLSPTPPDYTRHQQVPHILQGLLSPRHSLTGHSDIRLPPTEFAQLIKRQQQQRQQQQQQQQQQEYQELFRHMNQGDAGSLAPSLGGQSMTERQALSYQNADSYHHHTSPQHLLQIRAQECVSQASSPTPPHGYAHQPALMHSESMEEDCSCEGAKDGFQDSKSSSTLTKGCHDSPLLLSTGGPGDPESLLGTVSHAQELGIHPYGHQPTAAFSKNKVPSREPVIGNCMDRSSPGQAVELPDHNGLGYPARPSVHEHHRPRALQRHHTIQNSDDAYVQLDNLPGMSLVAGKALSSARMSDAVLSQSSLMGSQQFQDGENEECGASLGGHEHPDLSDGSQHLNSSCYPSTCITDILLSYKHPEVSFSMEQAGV", "conditions": "SIK3, 10 μM", "method_in_brief": "as §1"}, "STK33": {"molecular_target": "STK33 (Homo sapiens, UniProt Q9BYT3)", "conditions": "STK33, 10 μM", "method_in_brief": "as §1"}, "Src": {"molecular_target": "Src (Homo sapiens, UniProt P12931)", "method_in_brief": "as §1"}, "TAO1": {"molecular_target": "TAO1 (Homo sapiens, UniProt Q7L7X3)", "conditions": "TAO1, 10 μM", "method_in_brief": "as §1"}, "TrkA": {"molecular_target": "TrkA (Homo sapiens, UniProt P04629)", "method_in_brief": "as §1"}, "p38b MAPK": {"molecular_target": "p38b MAPK (Homo sapiens, UniProt Q15759)", "method_in_brief": "as §1"}, "p38g MAPK": {"molecular_target": "p38g MAPK (Homo sapiens, UniProt P53778)", "sequence (P53778 whole entry)": "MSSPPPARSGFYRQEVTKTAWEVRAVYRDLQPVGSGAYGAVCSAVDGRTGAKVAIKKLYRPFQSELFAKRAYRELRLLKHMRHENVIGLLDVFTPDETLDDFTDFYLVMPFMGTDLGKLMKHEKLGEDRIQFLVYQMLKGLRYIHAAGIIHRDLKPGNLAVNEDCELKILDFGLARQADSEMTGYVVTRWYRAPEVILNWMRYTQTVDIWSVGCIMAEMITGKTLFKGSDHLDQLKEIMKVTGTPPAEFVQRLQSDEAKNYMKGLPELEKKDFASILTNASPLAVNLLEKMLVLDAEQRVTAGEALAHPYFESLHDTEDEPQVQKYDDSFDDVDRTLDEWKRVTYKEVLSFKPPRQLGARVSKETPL", "method_in_brief": "as §1"}}, "data": [{"compound": "CN(C)c1cc[n+](CCCCCCCCCCCC[n+]2ccc(N(C)C)cc2)cc1", "note": "[ICL-CCIC-0019]", "values": [{"measurement": "remaining activity at 10 µM", "setting": "CAMKKb", "value": 91, "unit": "%"}, {"measurement": "remaining activity at 10 µM", "setting": "CHK2", "value": 90, "unit": "%"}, {"measurement": "remaining activity at 10 µM", "setting": "CK1γ2", "value": 92, "unit": "%"}, {"measurement": "remaining activity at 10 µM", "setting": "CK1δ", "value": 100, "unit": "%"}, {"measurement": "remaining activity at 10 µM", "setting": "ERK1", "value": 91, "unit": "%"}, {"measurement": "remaining activity at 10 µM", "setting": "HIPK1", "value": 106, "unit": "%"}, {"measurement": "remaining activity at 10 µM", "setting": "IKKb", "value": 101, "unit": "%"}, {"measurement": "remaining activity at 10 µM", "setting": "IRAK4", "value": 83, "unit": "%"}, {"measurement": "remaining activity at 10 µM", "setting": "IRR", "value": 92, "unit": "%"}, {"measurement": "remaining activity at 10 µM", "setting": "MKK1", "value": 82, "unit": "%"}, {"measurement": "remaining activity at 10 µM", "setting": "MNK2", "value": 96, "unit": "%"}, {"measurement": "remaining activity at 10 µM", "setting": "MPSK1", "value": 105, "unit": "%"}, {"measurement": "remaining activity at 10 µM", "setting": "MSK1", "value": 96, "unit": "%"}, {"measurement": "remaining activity at 10 µM", "setting": "MST2", "value": 89, "unit": "%"}, {"measurement": "remaining activity at 10 µM", "setting": "PAK5", "value": 90, "unit": "%"}, {"measurement": "remaining activity at 10 µM", "setting": "PAK6", "value": 107, "unit": "%"}, {"measurement": "remaining activity at 10 µM", "setting": "PDK1", "value": 133, "unit": "%"}, {"measurement": "remaining activity at 10 µM", "setting": "PHK", "value": 94, "unit": "%"}, {"measurement": "remaining activity at 10 µM", "setting": "PIM1", "value": 102, "unit": "%"}, {"measurement": "remaining activity at 10 µM", "setting": "PKA", "value": 106, "unit": "%"}, {"measurement": "remaining activity at 10 µM", "setting": "PKBa", "value": 101, "unit": "%"}, {"measurement": "remaining activity at 10 µM", "setting": "PKCa", "value": 98, "unit": "%"}, {"measurement": "remaining activity at 10 µM", "setting": "PKD1", "value": 105, "unit": "%"}, {"measurement": "remaining activity at 10 µM", "setting": "PRAK", "value": 101, "unit": "%"}, {"measurement": "remaining activity at 10 µM", "setting": "S6K1", "value": 88, "unit": "%"}, {"measurement": "remaining activity at 10 µM", "setting": "SGK1", "value": 94, "unit": "%"}, {"measurement": "remaining activity at 10 µM", "setting": "SIK3", "value": 102, "unit": "%"}, {"measurement": "remaining activity at 10 µM", "setting": "STK33", "value": 99, "unit": "%"}, {"measurement": "remaining activity at 10 µM", "setting": "Src", "value": 105, "unit": "%"}, {"measurement": "remaining activity at 10 µM", "setting": "TAO1", "value": 100, "unit": "%"}, {"measurement": "remaining activity at 10 µM", "setting": "TrkA", "value": 84, "unit": "%"}, {"measurement": "remaining activity at 10 µM", "setting": "p38b MAPK", "value": 107, "unit": "%"}, {"measurement": "remaining activity at 10 µM", "setting": "p38g MAPK", "value": 99, "unit": "%"}]}]}
